What was measured:
[1] = tested on: estrogen-induced uterotrophic effect; experiment: In vivo anti-estrogenic (anti-uterotrophic) activity, immature rat model; design: species or system Wistar immature female rats; details: oral, 20 mg/kg (tamoxifen 20 mg/kg/day, 6j equimolar per method), 3 days, with estradiol 10 μg/kg/day s.c.; immature female rats
Experimental: The anti-estrogenic activity was assessed as previously described.[65]−[67] All experiments were carried out in accordance with the recommendations of the […] Animal Care and Use Committee. The experimental protocol was approved by “The Commission on the Ethics of Scientific Research”, Faculty of Pharmacy, Minia University (no. ES30/2021). 20-day-old Wistar immature female rats (40–50 g) from the animal care facility of Nahda University at Beni Suef (NUB) were allowed to acclimatize to lab conditions for 3 days before the experiment with free access to food and water. Estradiol was diluted in olive oil and subcutaneously injected on the loose dorsal skin in a dose of 10 μg/kg/day. […] Both compounds were dissolved in a mixture of DMSO, Tween 20, and saline (1:1:8, respectively) and orally administered. The rats were randomly assigned to […] (n = 6) subjected to daily s.c. injections of estradiol, except for the control group. […] On the 4th day, all rats were sacrificed by cervical dislocation, and the uteri were dissected free of fat and weighed immediately. […] The results were expressed as percent inhibition from the formula [drawing 1] […] It is noteworthy that doses of the tested compounds are calculated on a molar basis. […] Values are expressed as mean ± SEM.

[2] = iCELLigence real-time cell analysis; type: cell-based, human; details: human, MCF-12A, relative to control, read-out: cell viability (% ± SEM)
Experimental: (§1) Therefore, compound 6j was applied in serial doses (2, 5, 10, 20, 50, and 100 μM) to MCF-7 cells and parallel to MCF-12A cells to determine the selectivity and safety. The treatments were performed 24 h after seeding the cells on system-specific biosensor-based plates. A total of 120 h of analyses were monitored, with cell viability measurements taken every 15 min. […] In addition, the viability percentage values for each dose in these periods were calculated and are summarized in Table 3 for MCF-7 and Table 4 for MCF-12A. […] In these treatments, cells were not killed dramatically after adding the highest two doses of 6j (100 and 50 μM); instead, they entered the stationary phase.
(§2) MCF-7 (Cat. no. HTB-22) (human estrogen receptor-positive breast cancer) and MCF-12A (Cat. no. CRL-10782) (human non-tumorigenic mammary epithelial) cell lines were obtained from the American Type Culture Collection (ATCC, Rockville, Maryland, USA). MCF-7 cells were maintained in Dulbecco’s modified Eagle’s medium (DMEM) (Biological Industries, Haemek, Israel) supplemented with 10% heat-inactivated fetal bovine serum (FBS) (Biowest, Nuaillé, France), 2 mM L-glutamine (Biological Industries, Haemek, Israel), 100 U/mL penicillin and 100 μg/mL streptomycin (Gibco, Waltham, MA, USA), and 2.5 μg/mL plasmocin (Invivogen, Toulouse, France) at 37 °C in a 5% CO2 humidified incubator. MCF-12A cells were cultured in a DMEM/F-12 Nutrient Mixture (Ham) (DMEM/F12 1:1 with HEPES and L-glutamine) (Gibco, Waltham, MA, USA) with 10% heat-inactivated FBS, 100 U/mL penicillin, 100 μg/mL streptomycin, and 10 μg/mL insulin (Humulin R, Lilly, Indianapolis, USA), 20 ng/mL epidermal growth factor (Abcam, Cambridge, UK), […] hydrocortisone (Dekort, Deva Ilac, Istanbul, Turkey), and 2.5 μg/mL plasmocin in a humidified atmosphere of 5% CO2 at 37 °C. The cells were routinely cultured in cell culture flasks and checked regularly under an inverted microscope. Cells reaching 80% confluency were passaged by treatment with 0.25% trypsin–EDTA. Total cell numbers were counted by the trypan blue dye exclusion method using a hemocytometer prior to the experiments.
(§3) The iCELLigence real-time cell analysis system was used to conduct a real-time and label-free examination of the activities of compound 6j on cells as we previously described.[62] In brief, following a background measurement with 200 μL of complete medium on iCELLigence E-plate L8, 100 μL of MCF-7 or MCF-12A cells was seeded at a density of 5.0 × 10^3 per well. During the 120 h monitoring, the system took impedance measurements via biosensors every 15 min. At the 24th h of incubation, the cells were treated with increasing concentrations of the 6j compound (2, 5, 10, 20, 50, and 100 μM) in duplicate. For cell culture experiments, compound 6j was dissolved in DMSO (Sigma, St. Louis, USA) at a stock concentration of 20 mM. For treatments, dilutions were prepared from 20 mM stock with a cell growth medium, with a final DMSO concentration of 0.1%. The medium containing 0.1% DMSO was also used as a negative control. […] Data were recorded by the iCELLigence software for 120 h and analyzed at the end of the study.

MCF-12A cells = experiment: iCELLigence real-time cell analysis; type: cell-based, human; details: for IC50: Homo sapiens, MCF-12A
Experimental: as §1, §2, §3

Q: Which “anti-uterotrophic activity (inhibition of estrogen-induced uterine weight)” value [1] does the source give for `COc1cc(C=C2C(=O)Nc3ccc(Cl)cc32)ccc1OCc1ccccn1` (mixture of isomers) [6j] here?
A: 38%

Q: What about the viability at 48 h, 2 µM ([2]; MCF-12A cells (non-tumorigenic mammary epithelial), 2 μM, 48 h) of the same compound?
A: 97.43 ± 0.02%

Q: And the viability at 72 h, 2 µM ([2]; MCF-12A cells (non-tumorigenic mammary epithelial), 2 μM, 72 h)?
A: 97.43 ± 0.02%

Q: And the viability at 96 h, 2 µM ([2]; MCF-12A cells (non-tumorigenic mammary epithelial), 2 μM, 96 h)?
A: 97.43 ± 0.02%

Q: And the viability at 72 h, 5 µM ([2]; MCF-12A cells (non-tumorigenic mammary epithelial), 5 μM, 72 h)?
A: 92.74 ± 0.01%

Q: And the viability at 96 h, 5 µM ([2]; MCF-12A cells (non-tumorigenic mammary epithelial), 5 μM, 96 h)?
A: 92.2%

Q: What about the viability at 72 h, 10 µM ([2]; MCF-12A cells (non-tumorigenic mammary epithelial), 10 μM, 72 h) of the same compound?
A: 87.93 ± 0.02%

Q: And the viability at 96 h, 10 µM ([2]; MCF-12A cells (non-tumorigenic mammary epithelial), 10 μM, 96 h)?
A: 87.93 ± 0.02%

Q: What about the viability at 72 h, 20 µM ([2]; MCF-12A cells (non-tumorigenic mammary epithelial), 20 μM, 72 h) of the same compound?
A: 80.57 ± 0.01%

Q: And the viability at 96 h, 20 µM ([2]; MCF-12A cells (non-tumorigenic mammary epithelial), 20 μM, 96 h)?
A: 80.57 ± 0.01%

Q: What about the viability at 72 h, 50 µM ([2]; MCF-12A cells (non-tumorigenic mammary epithelial), 50 μM, 72 h) of the same compound?
A: 72.7 ± 0.01%

Q: What about the viability at 96 h, 50 µM ([2]; MCF-12A cells (non-tumorigenic mammary epithelial), 50 μM, 96 h) of the same compound?
A: 72.54 ± 0.01%

Q: And the viability at 72 h, 100 µM ([2]; MCF-12A cells (non-tumorigenic mammary epithelial), 100 μM, 72 h)?
A: 62.63 ± 0.01%

Q: What about the viability at 96 h, 100 µM ([2]; MCF-12A cells (non-tumorigenic mammary epithelial), 100 μM, 96 h) of the same compound?
A: 61.3%

Q: What about the viability at 24 h, 2 µM ([2]; MCF-12A cells, 2 μM, 24 h) of the same compound?
A: 98.7%

Q: What about the viability at 24 h, 5 µM ([2]; MCF-12A cells, 5 μM, 24 h) of the same compound?
A: 99.06 ± 0.01%

Q: And the viability at 48 h, 5 µM ([2]; MCF-12A cells, 5 μM, 48 h)?
A: 93.73 ± 0.02%

Q: What about the viability at 24 h, 10 µM ([2]; MCF-12A cells, 10 μM, 24 h) of the same compound?
A: 97.22 ± 0.01%

Q: What about the viability at 48 h, 10 µM ([2]; MCF-12A cells, 10 μM, 48 h) of the same compound?
A: 88.48 ± 0.02%

Q: And the viability at 24 h, 20 µM ([2]; MCF-12A cells, 20 μM, 24 h)?
A: 93.6%

Q: And the viability at 48 h, 20 µM ([2]; MCF-12A cells, 20 μM, 48 h)?
A: 81.96 ± 0.01%

Q: What about the viability at 24 h, 50 µM ([2]; MCF-12A cells, 50 μM, 24 h) of the same compound?
A: 90.25 ± 0.01%

Q: What about the viability at 48 h, 50 µM ([2]; MCF-12A cells, 50 μM, 48 h) of the same compound?
A: 77.81 ± 0.01%

Q: What about the viability at 24 h, 100 µM ([2]; MCF-12A cells, 100 μM, 24 h) of the same compound?
A: 82%

Q: And the viability at 48 h, 100 µM ([2]; MCF-12A cells, 100 μM, 48 h)?
A: 67.3%

Q: What about the IC50 (MCF-12A cells; 24 h after treatment) of the same compound?
A: 506 µM

Q: What about the IC50 (MCF-12A cells; 48 h after treatment) of the same compound?
A: 81.9 µM

Q: What about the IC50 (MCF-12A cells; 72 h after treatment) of the same compound?
A: 312 µM

Q: What about the IC50 (MCF-12A cells; 96 h after treatment) of the same compound?
A: 207 µM

Q: And the “safer profile MCF-12A versus MCF-7” value (MCF-12A cells; at the 48th h, based on IC50 values)?
A: 5 times

Q: And the “effects on MCF-12A healthy breast cells” value (MCF-12A cells; first 24 h of treatment, any dose (2-100 μM))?
A: no effects
